Experimental data as given in US5880314A, “Hydrochalcone derivatives, cosmetic compositions containing said derivatives and methods of producing the same” (priority 1995, dated 1999).

Key:
synthesis of melanin = settings: reported in the literature; cited from earlier work
B16 melanoma cells = test: Melanoma cell depigmenting test (melanin production); type: cell-based; settings: 5 days, control as 100%; for activity at 0.01 µg/mL / activity at 0.03 µg/mL / activity at 0.3 µg/mL: Mus musculus, B16, 120 h
Description: (Melanoma Cell Depigmenting Test)
Effect of compounds in suppressing melanin pigment synthesis was tested by measuring change in color of B16 melanoma cells when the cells were cultured at a concentration which had no adverse effect on growth of the cells. B16 Melanoma cells (1×10^5) were inoculated on 60 mm petri dishes. After 24 hours, 1,3-bis(2,4-dihydroxyphenyl)propane synthesized in Production Example 3, 1,3-bis(2,4-diacetoxyphenyl)propane synthesized in Production Example 4 and 1,3-bis(2,4-didodecanoyloxyphenyl)propane were added to the each medium, and incubation was curried out for 5 days. After incubation, the cells recovered by trypsin treatment were suspended in 0.3 ml of phosphate buffer and subjected to ultrasonic treatment for cell disruption, 0.3 ml of 4N NaOH was added to the treated suspension and the resultant suspension was incubated at 60° C. for 2 hours. Absorbance was measured at 400 nm and the amount of released melanin was calculated by setting the control as 100%. In Comparative Examples, similar tests were carried out using dihydrophloretin, a hydrochalcone compound, in place of the compounds of the present invention.

skin = settings: combined in cosmetics; cited from earlier work

| Molecule | effect in suppressing the synthesis of melanin (synthesis of melanin) | activity at 0.01 µg/mL (B16 melanoma cells; 0.01 μg/ml) | activity at 0.03 µg/mL (B16 melanoma cells; 0.03 μg/ml) | activity at 0.3 µg/mL (B16 melanoma cells; 0.30 μg/ml) | also measured |
| --- | --- | --- | --- | --- | --- |
| O=C(CCc1ccc(O)cc1)c1c(O)cc(O)cc1O[C@@H]1O[C@H](CO)[C@@H](O)[C@H](O)[C@H]1O [phlorizin] | have an effect in suppressing the synthesis of melanin |  |  |  |  |
| CC(=O)Oc1ccc(CCCc2ccc(OC(C)=O)cc2OC(C)=O)c(OC(C)=O)c1 [1,3-bis(2,4-diacetoxyphenyl)propane] |  | 44% | 18% | 11% |  |
| CCCCCCCCCCCC(=O)Oc1ccc(CCCc2ccc(OC(=O)CCCCCCCCCCC)cc2OC(=O)CCCCCCCCCCC)c(OC(=O)CCCCCCCCCCC)c1 [1,3-bis(2,4-didodecanoyloxyphenyl)propane] |  | 28% | 9% | 7% |  |
| Oc1ccc(CCCc2ccc(O)cc2O)c(O)c1 [1,3-bis(2,4-dihydroxyphenyl)propane] |  | 31% | 10% | 7% |  |
| phlorezin | have an effect in suppressing the synthesis of melanin |  |  |  |  |
| Oc1ccc(OCc2ccccc2)cc1 [hydroquinone monobenzyl ether] |  |  |  |  | lightening of skin darkened with deposited pigment (skin): effectively lightened; side effects (skin): side effects such as skin allergies and irritation |
| dihydrophloretin | have an effect in suppressing the synthesis of melanin |  |  |  | Melanin production (%) (B16 melanoma cells; 0.01 μg/ml): 92%; Melanin production (%) (B16 melanoma cells; 0.03 μg/ml): 80%; Melanin production (%) (B16 melanoma cells; 0.30 μg/ml): 65% |
| phlorine | have an effect in suppressing the synthesis of melanin |  |  |  |  |
